According to US20100015058A1, “RADIOLABELED BBN-RGD HETERODIMERS FOR CANCER TARGETING” (STANFORD UNIVERSITY, priority 2008, published 2010):

Columns and labels:
[1] = Small-animal PET of MDA-MB-435 tumor-bearing mice; settings: female, athymic nude, mouse, in vivo, iv, total radioactivity; 30 min p.i., BBN tracer control study, FIG. 44B; read-out: MDA-MB-435 tumor uptake
[2] = Octanol/water partition coefficient; type: physicochemical; settings: octanol / PBS pH 7.4, room temperature
Experimental: The mixture was vigorously vortexed for 1 min at room temperature. After centrifugation at 12,500 rpm for 5 min in an Eppendorf microcentrifuge (model 5415R; Brinkman), 200-μL aliquots of both layers were measured using a 7-counter (Packard Instruments). The experiment was performed in triplicate.

DU-145 tumor = type: in vivo, mice; settings: integrin αvβ3-positive, low GRPR-expressing tumor
Experimental: The PC-3 and DU-145 human prostate carcinoma cell lines were purchased from American Type Culture Collection. PC-3 cells were grown in F-12K nutrient mixture (Kaighn's modification) (Invitrogen Corp.), and DU-145 cells were grown in minimum essential medium (Eagle) mixture supplemented with 10% (v/v) fetal bovine serum (Invitrogen) at 37° C. with 5% CO2. The PC-3 and DU-145 tumor models were generated by subcutaneous injection of 5×10^6 tumor cells into the front flank of male athymic nude mice (Harlan).
No attenuation or scatter correction was applied.

[3] = Small-animal PET of PC-3 tumor-bearing mice; settings: male, athymic nude, mouse, in vivo, iv, 3.7 MBq, total radioactivity, PC-3 tumor uptake, PET ROI
Experimental: (a) PET scans and image analysis were performed using a micro-PET R4 rodent model scanner (Siemens Medical Solutions) as reported by Li et al., J. Nucl. Med. (2007) 48: 1162-1171 and Wu et al., J Nucl. Med. (2005) 46: 1707-1718, both of which are incorporated herein by reference in their entireties). […] Five-minute static PET images were then acquired at 0.5, 1, and 2 h after injection. The images were reconstructed by a 2-dimensional ordered-subsets expectation maximum (OSEM) algorithm. No attenuation or scatter correction was applied. […] The 5-min static PET scans were then acquired at 1 hr after injection. For each small-animal PET scan, regions of interest (ROIs) were drawn over the tumor, normal tissue, and major organs by using vendor software (ASI Pro 5.2.4.0) on decay-corrected whole-body coronal images. The average radioactivity concentration (accumulation) within a tumor or an organ was obtained from mean pixel values within the multiple ROI volume, which were converted to counts/mL/min using a conversion factor. Assuming a tissue density of 1 g/mL, the ROIs were converted to counts/g/min, and then divided by the administered activity to obtain an imaging ROI-derived percentage injected dose per gram of tissue (% ID/g).
For dynamic PET, 30-min scans (1×30 s, 4×1 min, 1×1.5 min, 4×2 min, 5×3 min; total 15 frames) were started 1 min after injection, and two 5-min static PET images were also acquired at 1 h and 2 h after injection. […] For each small-animal PET scan, regions of interest (ROIs) were drawn over the tumor, normal tissue, and major organs using vendor software ASI Pro 5.2.4.0 on decay-corrected whole-body coronal images. The maximum radioactivity concentrations (accumulation) within a tumor or an organ were obtained from mean pixel values within the multiple ROI volume, and were converted to megabecquerels per milliliter per minute using a conversion factor. These values were then divided by the administered activity to obtain (assuming a tissue density of 1 g/ml) an image ROI-derived percent injected dose per gram (% ID/g).
The images were reconstructed using a 2-dimensional ordered-subsets expectation maximum algorithm without attenuation or scatter correction.
For each small-animal PET scan, regions of interest were drawn over each tumor, over normal tissue, and over major organs using vendor software (ASI Pro, version 5.2.4.0) on decay-corrected whole-body coronal images. The maximum radioactivity concentration (accumulation) within a tumor or an organ was obtained from the mean pixel values within the multiple-region-of-interest volume, which were converted to MBq/mL/min using a conversion factor. Assuming a tissue density of 1 g/mL, the regions of interest were converted to MBq/g/min and then divided by the administered activity to obtain an imaging region-of-interest-derived percentage injected dose (% ID)/g.

PC-3 tumor cells = assay: Cell uptake assay on PC-3 tumor cells; type: cell-based, human; settings: PC-3 cells, 37° C., within 30 min of incubation, plateau afterward
Experimental: In the cell uptake experiment, PC-3 cells were seeded into 12-well plates at a density of 5×10^5 cells per well for overnight incubation. Cells were rinsed 3 times with phosphate-buffered saline (PBS), followed by the addition of ^18F-FB-RGD, ^18F-FB-BBN, or ^18F-BBN-RGD to the cultured wells in triplicate (about 2 μCi/well). […] The cell lysate was collected in measurement tubes for counting. The cell uptake was normalized in terms of added radioactivity.
The cell uptake studies were performed as we have previously described with some modifications (Chen et al., Mol Imaging Biol. (2004) […]; Cai et al., (2006) J. Nuc. Med. 47: 1172-1180, incorporated herein by reference in their entireties). Briefly, PC-3 cells were seeded into 12-well plates at a density of 5×10^5 cells per well and incubated (about 18 kBq/well) with ^68Ga-labeled tracers at 37° C. for 15, 30, 60, and 120 min. Tumor cells were then washed three times with chilled PBS and harvested by trypsinization with 0.25% trypsin/0.02% EDTA (Invitrogen). The cell suspensions were collected and measured in a y counter (Packard, Meriden, Conn.). The cell uptake was expressed as the percent added dose (% AD) after decay correction. Experiments were performed twice with triplicate wells. For efflux studies, ^68Ga-labeled tracers (about 18 kBq/well) were first incubated with PC-3 cells in 12-well plates for 1 h at 37° C. to allow internalization. Then cells were washed twice with PBS, and incubated with cell culture medium for 15, 30, and 60 min. After washing three times with PBS, cells were harvested by trypsinization with 0.25% trypsin/0.02% EDTA. The cell suspensions were collected and measured in a γ counter. Experiments were performed twice with triplicate wells. Data are expressed as percent added dose after decay correction.

integrin αvβ3 = target: T1, integrin αvβ3 (Homo sapiens, UniProt P05106+P06756); assay: Competitive cell-binding assay with ^125I-c(RGDyK) on U87MG cells; settings: FIG. 14A
T1 construct: Experiments were performed on U87MG human glioma cells expressing integrin αvβ3 as previously described; endogenous in cells; host or cells: U87MG human glioblastoma (glioma) cells

SMILES	tissue uptake at 0.5 h [1]	logP [2]	detection of the DU-145 tumor by PET (DU-145 tumor)	tissue uptake at 0.5 h ([3]; 30 min after injection of 3.7 MBq)	tissue uptake at 1 h ([3]; 60 min after injection of 3.7 MBq, no blocking)	tissue uptake at 2 h ([3]; 120 min after injection of 3.7 MBq)	cell uptake (PC-3 tumor cells)	binding inhibition of ^125I-c(RGDyK) (integrin αvβ3)
CSCC[C@H](NC(=O)[C@H](CC(C)C)NC(=O)[C@H](Cc1c[nH]cn1)NC(=O)CNC(=O)[C@@H](NC(=O)[C@H](C)NC(=O)[C@H](Cc1c[nH]c2ccccc12)NC(=O)[C@H](CCC(N)=O)NC(=O)CCCCCNC(=O)c1ccc(F)cc1)C(C)C)C(N)=O [^18F-FB-BBN, reference compound]	0.45 ± 0.11 %ID/g	1.49 ± 0.02	unable to detect the DU-145 tumor	0.63 ± 0.16 %ID/g	0.44 ± 0.1 %ID/g	0.29 ± 0.08 %ID/g	about 7%	
CSCC[C@H](NC(=O)[C@H](CC(C)C)NC(=O)[C@H](Cc1c[nH]cn1)NC(=O)CNC(=O)[C@@H](NC(=O)[C@H](C)NC(=O)[C@H](Cc1c[nH]c2ccccc12)NC(=O)[C@H](CCC(N)=O)NC(=O)CCCCCN)C(C)C)C(N)=O [Aca-BBN(7-14)]								did not show significant binding inhibition
